According to patent US7897620B2, “Methods of using anti-inflammatory compounds” (Cambridge Enterprise Limited, priority 2007, dated 2011):
Read-outs that look alike come from different tables or passages of the source.

Tests used:
[1] = test system: LPS-induced TNF-α production; test: Sub-lethal LPS-induced endotoxemia, serum TNF-α by ELISA; format: in vivo, mouse; conditions: for inhibition of LPS-induced TNF-α production: mouse, reference agents, previously shown by applicant, dose not stated
Method: In this assay, mice are given a non-specific pro-inflammatory challenge using bacterial endotoxin (LPS), and the extent of the systemic inflammatory response (measured by serum levels of the central pro-inflammatory cytokine TNF-α, which is essentially absent from the blood under normal conditions, but is rapidly elevated in response to a wide range of inflammatory stimuli).
Mice (in groups of 6) were pretreated with various doses of each compound, either by the subcutaneous route 30 mins prior to LPS challenge, or by the oral route (via gavage) 60 mins prior to LPS. The mice were then challenged with an intraperitoneal injection of 750 μg of bacterial LPS and sacrificed 3 hours later. Serum was prepared from a terminal bleed by cardiac puncture, and the concentration of TNF-α is determined by ELISA (R&D Systems). In each experiment, a group of 6 mice receive no LPS to act as a negative control, and a second group receive only LPS (with no candidate inhibitor). The level of TNF-α in serum from these animals, which received LPS without drug pre-treatment, is arbitrarily set to 100% (and is typically of the order of 6,000 pg/ml, compared with levels of <10 pg/ml among the negative control group). […]

[2] = test system: lung leukocyte recruitment and T-helper cell polarisation; test: Ovalbumin-induced lung inflammation model of asthma (BAL leukocyte count, splenocyte Th1/Th2 ratio); format: in vivo, Brown Norway rat; conditions: rat, 30 mg/kg daily oral
Method: Adult Brown Norway rats (200-300 g body weight; n=10 per group) were sensitised by a single intraperitoneal injection of 0.1 mg Ovalbumin on day 0. Each rat then received an intratracheal challenge with a solution of 1% ovalbumin (w/v) on day 8, and with 2% ovalbumin (w/v) on days 15, 18 and 21. The animals were then sacrificed 3 hours after the final challenge on day 21. Note that ovalbumin (Sigma; purest available grade) was made endotoxin-free by passage over EndoTrap™ Red columns (purchased from Cambrex; used in accordance with the manufacturer's instructions), and the endotoxin level was confirmed as <5 EU/mg protein using the LAL assay (QCL-1000™; Cambrex; performed in accordance with the manufacturer's instructions; 1 mg of standard endotoxin contains ˜900,000 EU/mg). […]
On sacrifice, total lung leukocyate recruitment was assessed by performing a broncheoalveolar lavage (BAL) using 4 lots of 3 ml sterile phosphate-buffered saline introduced through a tracheal cannula. For each animal, the BAL washes were combined, and the total cell population counted (using a haemocytometer). […]
The spleen was also removed from each […] and placed in RPMI+10% FCS+antibiotics. […] The resulting cell suspension was then centrifuged (328 g; 5 mins) and washed in RPMI+10% FCS+antibiotics, before being resuspended in fresh media and counted using a haemocytometer. […]

[3] = test system: S. Typhinurium (TA 102, TA98 and TA 100); test: AMES test, revertant colony formation; format: cell-based
Method: The five compounds were subjected to a standard AMES test to assess likely genotoxicity. Three His-auxotroph strains of S. Typhinurium (TA 102, TA98 and TA 100) were treated with each of the compounds at 5 concentrations (up to 5 mg/ml) in the presence and absence of S9 rat liver microsomal metabolising system. The number of revertant colonies was then determined by plating on trace-His minimal media.

[4] = Identification of the primary metabolites in pooled 24 h urine (LC-MS-MS full scan); format: in vivo; conditions: rat, single oral dose 3 mg/kg in 1% CMC, qualitative
Method: Urine was collected from rats exposed to a single oral dose (3 mg/kg in 1% CMC) of each compound over a 24 hour period in metabolic cages. The pooled urine sample was then subjected to full scan mass spectral analysis, using the same LC-MS conditions as described in example 1 above. Further MS-MS analysis of the product ions was then performed, and likely fragmentations/re-arrangements assigned from the publicly available Metabolite ID database.
For the major metabolites, the assigned structures were confirmed by synthesis of authentic samples, using methods well known in the art, which were subject to LC-MS-MS analysis under the same conditions as the urine samples.
Note that metabolite ID studies provide only qualitative estimates of the relative amounts of the different metabolites present, and separately validated assays with appropriate internal standards would be required to quantitate each metabolite species.
The detected metabolites, in rank order of concentration detected are shown in FIG. 2 for the five compounds analysed. It is important to note that the methodology used here is not necessarily exhaustive, and further (particularly minor) metabolites may also be present which were below the detection limits for the methods applied here. As a general rule, it can be assumed that metabolites representing 10% or more of the injected dose will be detected (though not necessarily structurally identified) by the methods used here).

[5] = test system: MCP-1 induced THP-1 cell migration; test: ChemoTx transwell migration assay, MCP-1 induced migration of THP-1 cells; format: cell-based; conditions: Homo sapiens
Method: In principle, this assay consists of two chambers separated by a porous membrane. The chemoattractant is placed in the lower compartment and the cells are placed in the upper compartment. After incubation for a period at 37° C. the cells move towards the chemoattractant, and the number of cells in the lower compartment is proportional to the chemoattractant activity (relative to a series of controls).
The THP-1 cell line (European Cell Culture Collection) were used as the leukocyte cell population.
First, the cell suspension to be placed in the upper compartment is prepared. The THP-1 cells are pelleted by centrifugation (770×g; 4 mins) and washed with Geys Balanced Salt Solution with 1 mg/ml BSA (GBSS+BSA). This wash is then repeated, and the cells repelleted before being resuspended in a small volume of GBSS+BSA for counting, for example using a standard haemocytometer.
The volume of GBSS+BSA is then adjusted depending on the number of cells present so that the cells are at final density of 4.45×10^6 cells per ml of GBSS+BSA. This ensures that there are […] THP-1 cells in each 25 μl of the solution that will be placed in the upper chamber of the plate.
To test a single compound for its ability to inhibit chemokine induced migration, it is necessary to prepare two lots of cells. The suspension of THP-1 cells at 4.45×10^6 cells/ml is divided into two pots. To one pot the inhibitor under test is added at an appropriate final concentration, in an appropriate vehicle (for example at 1 μM in not more than 1% DMSO). To the second pot an equal volume of GBSS+BSA plus vehicle as appropriate (e.g. not more than 1% DMSO) is added to act as a control.
Next, the chemoattractant solution to be placed in the lower compartment is prepared. For example, MCP-1 is diluted in GBSS+BSA to give a final concentration of 25 ng/ml. This is divided into two pots, as for the cell suspension. To one pot, the test compound is added to the same final concentration as was added to the cell suspension, while to the other pot an equal volume of GBSS+BSA plus vehicle as appropriate (e,g. not more than 1% DMSO) is added. Alternatively, other chemokines may be used (SDF-1α at 7.5 ng/ml; RANTES at 50 ng/ml; IL-8 at 10 ng/ml using neutrophils as the target cell population). In each case it is important to determine (in a separate experiment) the concentration of each chemokine which causes maximal stimulation of migration of the chosen target leukocyte population. This maximal concentration must then be used in experiments to test the inhibitory activity of the compounds of the invention.
Once the chemoattractant solutions for the lower wells and cell solutions for the upper chambers have been prepared, the migration chamber should be assembled. Place 29 μl of the appropriate chemoattractant solution into the lower well of the chamber. Assays should be performed with at least triplicate determinations of each condition. Once all the lower chambers have been filled, apply the porous membrane to the chamber in accordance with the manufacturer's instructions. Finally, apply 25 μl of the appropriate cell solution to each upper chamber. A plastic lid is placed over the entire apparatus to prevent evaporation.
The assembled chamber is incubated at 37° C., 5% CO2, for 2 hours. A suspension of cells in GBSS+BSA is also incubated under identical conditions in a tube: these cells will be used to construct a standard curve for determining the number of cells that have migrated to the lower chamber under each condition.
At the end of the incubation, the liquid cell suspension is gently removed from the upper chamber, and 20 μl of ice-cold 20 mM EDTA in PBS is added to the upper chamber, and the apparatus is incubated at 4° C. for 15 mins. This procedure causes any cells adhering to the underside of the membrane to fall into the lower chamber.
After this incubation the filter is carefully flushed with GBSS+BSA to wash off the EDTA, and then the filter is removed. […]

[6] = Pharmacokinetics following a single dose in rat (LC-MS/MS of blood, one-compartment model); format: in vivo; conditions: rat, averaged across three rats
Method: Compounds were administered as a single dose (either 1 mg/kg bodyweight in 5% DMSO via the intravenous route or 3 mg/kg in 1% carboxymethylcellulose via the oral route) to three adult rats (using different rats for each compound and each route of administration).
Blood was then sampled at various time points (including just prior to dose administration) out to 24 hrs post dose, and the level of the various compounds was assessed using a validated LC-MS/MS assay. Briefly, 3-5 μl of the deproteinised sample was applied to a Waters Atlantis (C18 20×2.1 mm, 3 μm bead size) reverse phase chromatography column equilibrated in 0.1% formic acid in 95:5 water:actetonitrile. Over 3.5 minutes bound material was gradient eluted reaching 0.1% formic acid in 5:95 water:acetonitrile, followed by a step gradient back to 0.1% formic acid in 95:5 water:acetonitrile. The column eluent was then directed to an Applied Biosystems API 4000/3200 QTrap MS/MS mass spectrometer, with a Turbolonspray™ ion source operating in positive ion mode. The interface temperature was set at 650° C., with a 40 ms dwell time for each MRM transition, monitoring the following ions:
The internal standard in each determination was the related compound (S)-3-(2′,2′-dimethylpropanoylamino)-caprolactam, which was spiked into the sample prior to deproteinization. The lower limit of quantitation (LLOQ) for this assay was 2.4 ng/ml for each compound except (I′), where it was 38.1 ng/ml.
Following LC-MS/MS analysis of each collected sample, the pharmacokinetic disposition of the compound was modelled using Kinetica software, a well known software package for such applications.

Q: With `C[C@@H]1C[C@H]2[C@@H]3CCC4=CC(=O)C=C[C@]4(C)[C@@]3(F)[C@@H](O)C[C@]2(C)[C@@]1(O)C(=O)CO` [dexamethasone] as the compound, how does the “inhibition of LPS-induced TNF-α production” value [1] read?
A: The value was “at least 90%”.

Q: Which “number of leukocytes in the BAL washes” value [2] does the source give for `CC(C)(O)c1ccccc1CC[C@@H](SCC1(CC(=O)O)CC1)c1cccc(/C=C/c2ccc3ccc(Cl)cc3n2)c1` [monteleukast] here?
A: Its value is “significantly reduced the number of leukocytes in the BAL washes”.

Q: For `C=CCCCCCCCCC(=O)N[C@H]1CCC(=O)NC1=O` [NR58,4], which “fold less potent in vivo than 2′,2′-dimethylpropanoylamino)-tetrahydropyridin-2-one” value ([1]; models of acute inflammation such as LPS-induced endotoxemia) is on record?
A: Its value is “at least 250 fold”.

Q: With `O=C1CCC(N2C(=O)c3ccccc3C2=O)C(=O)N1` (stereo not drawn) [thalidomide] as the compound, how does the “inhibition of LPS-induced TNF-α production” value [1] read?
A: The value was “about 60%”.

Q: For `CC1(C(=O)N[C@H]2CCCCNC2=O)CCCCC1` [(III), 3-(1′-methylcyclohexylcarbonylamino)-caprolactam], which “Revertant colony formation TA98 + S9” value ([3]; TA98 with S9, top dose 5 mg/ml) is on record?
A: Its value is 0.55.

Q: What about the “Revertant colony formation TA98” value ([3]; TA98 without S9, top dose 5 mg/ml) of the same compound?
A: Its value is 0.68.

Q: What about the “Revertant colony formation TA100 + S9” value ([3]; TA100 with S9 rat liver microsomal system, top dose 5 mg/ml) of the same compound?
A: Its value is 0.81.

Q: What about the “Revertant colony formation TA100” value ([3]; TA100 without S9, top dose 5 mg/ml) of the same compound?
A: Its value is 0.79.

Q: And the “Revertant colony formation TA102 + S9” value ([3]; TA102 with S9, top dose 5 mg/ml)?
A: The value was 0.88.

Q: What about the “Revertant colony formation TA102” value ([3]; TA102 without S9, top dose 5 mg/ml) of the same compound?
A: Its value is 0.69.

Q: What about the “major metabolite / route of metabolism detected in urine” value [4] of the same compound?
A: Its value is “cytochrome P450-mediated hydroxylation”.

Q: What about the EC50 ([5]; THP-1 cells, maximal dose of chemoattractant, read-out: ED50 MCP-1) of the same compound?
A: The EC50 was 0.08 nM.

Q: What about the EC50 ([5]; THP-1 migration inhibition, Table 5, read-out: Functional ED50 versus MCP-1) of the same compound?
A: Its EC50 is 0.08 nM.

Q: What about the AUC(0-inf) ([6]; blood, single oral dose 3 mg/kg in 1% CMC, read-out: Exposure (AUC 0->infinity) (converted)) of the same compound?
A: The AUC(0-inf) was 48.3 ng·h/mL.

Q: And the “F (%) oral bioavailability” value ([6]; 1 mg/kg iv in 5% DMSO and 3 mg/kg oral in 1% CMC, one-compartment model)?
A: The value was 5%.

Q: What about the “Vss (L/kg) volume of distribution” value ([6]; one-compartment model) of the same compound?
A: Its value is 0.6 L/kg.

Q: And the “clearance” value ([6]; one-compartment model)?
A: The value was 55 mL/min/kg.

Q: What about the “t½ (mins) dominant plasma half-life” value ([6]; one-compartment model) of the same compound?
A: The value was 11 min.
